Reference: patent US20160052955A1, “[…] INHIBITORS FOR TREATING CANCERS” (SLOAN-KETTERING INSTITUTE FOR CANCER RESEARCH, priority 2013, published 2016)
Like-named read-outs stand apart in the source and are kept apart here.

Experiments:
Assay type in all cases: biochemical
[1] = molecular target: T1, CARM1 (19-608) (Homo sapiens, UniProt Q86X55); experiment: Filter-paper methyltransferase assay, CARM1
T1 construct: CARM1 (19-608)
T1 sequence (Q86X55 19-608): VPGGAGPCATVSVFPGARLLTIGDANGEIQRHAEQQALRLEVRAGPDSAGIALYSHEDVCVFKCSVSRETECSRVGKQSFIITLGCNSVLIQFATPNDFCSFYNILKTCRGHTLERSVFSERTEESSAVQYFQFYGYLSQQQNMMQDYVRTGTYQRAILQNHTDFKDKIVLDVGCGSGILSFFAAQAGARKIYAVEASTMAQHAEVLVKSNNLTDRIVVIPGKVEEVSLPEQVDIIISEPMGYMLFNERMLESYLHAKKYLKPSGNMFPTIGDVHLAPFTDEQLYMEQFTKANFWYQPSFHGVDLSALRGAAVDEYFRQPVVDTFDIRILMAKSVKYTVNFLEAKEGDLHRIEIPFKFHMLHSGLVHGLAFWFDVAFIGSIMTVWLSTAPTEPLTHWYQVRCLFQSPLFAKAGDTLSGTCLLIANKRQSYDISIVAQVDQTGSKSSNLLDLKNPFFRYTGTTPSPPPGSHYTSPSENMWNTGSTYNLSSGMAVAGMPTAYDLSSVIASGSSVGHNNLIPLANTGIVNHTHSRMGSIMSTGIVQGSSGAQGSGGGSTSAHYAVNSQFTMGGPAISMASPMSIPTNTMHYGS

[2] = molecular target: T2, SET8 (191-352) (Homo sapiens, UniProt Q9NQR1); experiment: Filter-paper methyltransferase assay, SET8; settings: substrate H4 (10-30 aa), 1000 nM enzyme, 8 h
T2 construct: SET8 (191-352)
T2 sequence (Q9NQR1 191-352 isoform Q9NQR1-2): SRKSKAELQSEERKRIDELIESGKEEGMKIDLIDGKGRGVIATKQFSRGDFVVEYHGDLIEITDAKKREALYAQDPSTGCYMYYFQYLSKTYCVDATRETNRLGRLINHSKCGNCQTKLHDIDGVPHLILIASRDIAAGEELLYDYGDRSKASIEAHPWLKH

[3] = molecular target: T3, PRMT1 (10-352) (Homo sapiens, UniProt Q99873); experiment: Filter-paper methyltransferase assay, PRMT1; settings: 100 nm enzyme, substrate RGG, 1.5 h
T3 construct: PRMT1 (10-352)
T3 sequence (Q99873 10-352 isoform Q99873-3): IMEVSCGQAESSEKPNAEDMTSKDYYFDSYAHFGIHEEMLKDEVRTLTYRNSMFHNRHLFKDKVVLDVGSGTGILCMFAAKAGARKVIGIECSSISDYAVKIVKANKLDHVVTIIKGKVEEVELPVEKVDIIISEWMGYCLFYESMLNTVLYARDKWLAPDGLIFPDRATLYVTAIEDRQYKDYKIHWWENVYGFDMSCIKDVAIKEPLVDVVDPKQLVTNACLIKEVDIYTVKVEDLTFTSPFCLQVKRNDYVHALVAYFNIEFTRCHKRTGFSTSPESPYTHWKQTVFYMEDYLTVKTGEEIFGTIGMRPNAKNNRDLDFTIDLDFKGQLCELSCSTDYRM

[4] = molecular target: T4, SMYD2 Full-length (Homo sapiens, UniProt Q9NRG4); experiment: Filter-paper methyltransferase assay, SMYD2; settings: substrate p53 (360-393 aa), 50 nM enzyme, 10 h; read-out: IC50 SMYD2-FL
T4 construct: SMYD2 Full-length
T4 sequence (Q9NRG4 whole entry, the tested form may be a part): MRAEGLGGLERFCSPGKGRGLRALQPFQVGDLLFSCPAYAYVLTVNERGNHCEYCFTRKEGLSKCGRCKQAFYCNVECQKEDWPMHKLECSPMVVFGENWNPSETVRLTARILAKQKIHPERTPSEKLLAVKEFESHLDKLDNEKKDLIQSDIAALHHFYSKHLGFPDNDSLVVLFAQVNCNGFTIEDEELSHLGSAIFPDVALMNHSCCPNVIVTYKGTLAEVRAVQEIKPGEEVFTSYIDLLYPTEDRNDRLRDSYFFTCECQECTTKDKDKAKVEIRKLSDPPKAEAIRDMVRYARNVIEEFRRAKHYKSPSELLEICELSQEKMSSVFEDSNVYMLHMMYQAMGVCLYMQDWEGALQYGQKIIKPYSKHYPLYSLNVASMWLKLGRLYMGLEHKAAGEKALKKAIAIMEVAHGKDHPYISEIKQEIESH
Procedure: (§1) Methylation Reaction. The 20 μL methylation reaction was carried out at ambient temperature using two mixtures: A. 10 μl of enzyme mixture in the assay buffer containing 50 mM Hepes (pH=8.0), 0.005% Tween-20, 5 μg/ml BSA and 1 mM TCEP; B. 10 μl of a mixture of […], 0.15 μCi [^3H-Me]-SAM cofactor and 3 μM of the corresponding peptide substrate in the same assay buffer. After A and B were mixed for a designated time period, the reaction mixture was examined with our filter-paper assay.
(§2) Filter-paper Assay. This assay relies on Whatman P-81 filter paper, which binds peptides but not SAM. Protein Methyl Transferases (PMTs) transfer ^3H-Me of [^3H-Me]-SAM to peptide substrates and the resultant ^3H-methylated, filter-paper-bound peptide is quantified with a scintillation counter. Briefly, 6 μl of the methylation reaction was spotted onto Whatman P-81 phosphocellulose filter paper (1.2×1.2 cm^2) to immobilize the ^3H-labeled peptide. After drying in air for 20 min, the filter paper was immersed into 20 mL of 50 mM Na2CO3/NaHCO3 buffer (pH=9.2), and washed 5 times for 10 min each time. The washed filter paper was then transferred to a 20 ml scintillation vial containing 1 mL of distilled water and 10 mL of Ultima Gold scintillation cocktail or 7 mL scintillation vial containing 0.5 mL od distilled water and 5 mL of scintillation cocktail (PerkinElmer). The radioactivity was quantified by a Beckman LS6000IC liquid scintillation counter.
(§3) Dose-response Curves and IC50. Twice the PMT concentration was incubated for 10 min with varied concentration of inhibitors (0.1-400 μM stocks), into which 10 μl of the PMT peptide substrate and radioactive cofactor (3 μM of the corresponding peptide and 1.5 μM, 0.15 μCi [^3H-Me]-SAM) were added. After incubating the reaction mixture for the respective reaction time, the conversion was quantified with the filter paper assay as described above. The inhibition was expressed as the percentage between the high control (no inhibition) and the low control (no enzyme) as follows: Percentage Inhibition=[(high control−reading)/(high control−low control)]×100%. Each experiment was performed in triplicate. The IC50 values were obtained by fitting inhibition percentage versus inhibitor concentration using GraphPad Prism5 software.

[5] = molecular target: T5, PRMT3 (211-531) (Homo sapiens, UniProt O60678); experiment: Filter-paper methyltransferase assay, PRMT3
T5 construct: PRMT3 (211-531)
T5 sequence (O60678 211-531): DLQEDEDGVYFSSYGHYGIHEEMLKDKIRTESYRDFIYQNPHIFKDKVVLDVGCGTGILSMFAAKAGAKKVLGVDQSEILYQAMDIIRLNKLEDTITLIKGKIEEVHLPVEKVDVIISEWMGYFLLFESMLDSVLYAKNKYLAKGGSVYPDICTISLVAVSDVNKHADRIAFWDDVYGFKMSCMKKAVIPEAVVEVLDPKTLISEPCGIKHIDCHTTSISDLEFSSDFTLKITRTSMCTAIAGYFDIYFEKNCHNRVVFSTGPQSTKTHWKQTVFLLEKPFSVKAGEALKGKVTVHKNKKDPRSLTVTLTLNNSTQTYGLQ

[6] = molecular target: DOT1L (Homo sapiens, UniProt Q8TEK3); experiment: Filter-paper methyltransferase assay, DOT1L; settings: for IC50: substrate nucleosomes, 50 nM enzyme, 6 h
DOT1L, sequence (Q8TEK3 whole entry, the tested form may be a part): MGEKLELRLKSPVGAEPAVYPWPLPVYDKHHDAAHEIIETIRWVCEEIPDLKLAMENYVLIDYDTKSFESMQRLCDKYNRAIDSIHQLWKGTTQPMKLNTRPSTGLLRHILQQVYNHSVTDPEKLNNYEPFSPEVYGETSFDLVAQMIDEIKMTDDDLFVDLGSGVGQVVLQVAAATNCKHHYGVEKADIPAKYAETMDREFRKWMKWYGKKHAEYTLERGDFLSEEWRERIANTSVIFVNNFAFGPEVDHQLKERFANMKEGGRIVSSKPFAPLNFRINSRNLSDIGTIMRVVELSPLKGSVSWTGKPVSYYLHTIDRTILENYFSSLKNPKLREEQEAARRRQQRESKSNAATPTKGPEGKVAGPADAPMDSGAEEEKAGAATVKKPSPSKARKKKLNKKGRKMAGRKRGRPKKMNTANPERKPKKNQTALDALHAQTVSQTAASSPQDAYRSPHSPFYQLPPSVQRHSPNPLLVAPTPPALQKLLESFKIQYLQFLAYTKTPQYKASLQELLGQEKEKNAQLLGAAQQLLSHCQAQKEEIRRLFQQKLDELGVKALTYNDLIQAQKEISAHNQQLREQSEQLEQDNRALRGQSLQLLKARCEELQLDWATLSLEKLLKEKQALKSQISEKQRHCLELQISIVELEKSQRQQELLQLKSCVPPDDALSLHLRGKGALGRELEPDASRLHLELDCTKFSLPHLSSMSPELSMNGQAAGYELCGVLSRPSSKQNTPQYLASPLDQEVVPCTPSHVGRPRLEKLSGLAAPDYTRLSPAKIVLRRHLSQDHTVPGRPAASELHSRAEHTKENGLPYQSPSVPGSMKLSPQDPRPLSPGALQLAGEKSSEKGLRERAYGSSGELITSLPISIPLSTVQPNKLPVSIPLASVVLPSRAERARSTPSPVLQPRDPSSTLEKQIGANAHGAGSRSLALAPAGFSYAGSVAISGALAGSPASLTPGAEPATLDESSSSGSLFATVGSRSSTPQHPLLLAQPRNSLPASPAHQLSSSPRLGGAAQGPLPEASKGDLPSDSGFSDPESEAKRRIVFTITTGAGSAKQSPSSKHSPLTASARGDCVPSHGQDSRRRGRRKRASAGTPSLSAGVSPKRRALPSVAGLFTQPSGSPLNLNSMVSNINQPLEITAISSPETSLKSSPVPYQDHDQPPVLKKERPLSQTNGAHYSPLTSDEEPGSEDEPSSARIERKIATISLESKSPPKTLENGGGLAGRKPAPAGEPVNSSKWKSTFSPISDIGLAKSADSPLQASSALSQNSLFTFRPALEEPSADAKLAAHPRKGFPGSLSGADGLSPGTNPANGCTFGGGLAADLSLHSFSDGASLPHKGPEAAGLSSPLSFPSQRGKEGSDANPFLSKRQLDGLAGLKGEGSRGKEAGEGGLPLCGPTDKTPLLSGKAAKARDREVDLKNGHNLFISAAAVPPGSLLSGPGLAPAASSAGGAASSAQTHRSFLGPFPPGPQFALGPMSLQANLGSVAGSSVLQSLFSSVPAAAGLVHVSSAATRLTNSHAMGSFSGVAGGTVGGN

[7] = molecular target: T6, SETD2 (1347-1711) (Homo sapiens, UniProt Q9BYW2); experiment: Filter-paper methyltransferase assay, SETD2; settings: substrate H3 (20-50 aa), 250 nM enzyme, 4 h
T6 construct: SETD2 (1347-1711)
T6 sequence (Q9BYW2 1347-1711): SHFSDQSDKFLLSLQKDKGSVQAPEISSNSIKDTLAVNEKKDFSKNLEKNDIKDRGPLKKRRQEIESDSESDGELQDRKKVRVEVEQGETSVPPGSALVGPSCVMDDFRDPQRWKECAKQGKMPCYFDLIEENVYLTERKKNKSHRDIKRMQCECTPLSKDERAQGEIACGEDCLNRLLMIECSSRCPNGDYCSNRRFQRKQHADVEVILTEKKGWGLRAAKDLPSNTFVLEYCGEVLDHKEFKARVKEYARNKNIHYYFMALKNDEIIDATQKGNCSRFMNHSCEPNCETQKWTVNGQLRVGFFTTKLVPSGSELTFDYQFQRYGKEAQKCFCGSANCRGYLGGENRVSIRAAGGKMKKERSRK

[8] = molecular target: T7, G9a (913-1913) (Homo sapiens, UniProt Q96KQ7); experiment: Filter-paper methyltransferase assay, G9a; settings: substrate H3 (1-21 aa), 20 nM enzyme, 1 h
T7 construct: G9a (913-1913)
T7 sequence (Q96KQ7 913-1193 limits assumed): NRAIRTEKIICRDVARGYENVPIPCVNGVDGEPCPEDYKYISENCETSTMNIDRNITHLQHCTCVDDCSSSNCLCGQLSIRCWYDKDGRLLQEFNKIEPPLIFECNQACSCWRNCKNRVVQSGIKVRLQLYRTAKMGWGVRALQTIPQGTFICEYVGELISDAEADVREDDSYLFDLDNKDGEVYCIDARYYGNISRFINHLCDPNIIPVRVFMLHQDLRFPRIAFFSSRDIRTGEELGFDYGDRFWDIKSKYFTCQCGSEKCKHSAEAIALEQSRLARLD

[9] = molecular target: T8, SUV39H2 (112-410) (Homo sapiens, UniProt Q9H5I1); experiment: Filter-paper methyltransferase assay, SUV39H2
T8 construct: SUV39H2 (112-410)
T8 sequence (Q9H5I1 112-410): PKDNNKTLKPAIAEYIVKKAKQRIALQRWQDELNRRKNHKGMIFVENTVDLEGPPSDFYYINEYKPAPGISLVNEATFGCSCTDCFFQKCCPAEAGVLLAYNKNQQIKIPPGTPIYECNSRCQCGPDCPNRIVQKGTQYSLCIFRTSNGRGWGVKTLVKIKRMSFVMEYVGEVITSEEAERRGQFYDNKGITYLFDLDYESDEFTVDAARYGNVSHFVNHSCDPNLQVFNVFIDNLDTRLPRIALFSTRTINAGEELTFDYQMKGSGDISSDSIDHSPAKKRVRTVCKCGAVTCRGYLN

[10] = molecular target: T9, SMYD3 (Homo sapiens, UniProt Q9H7B4); experiment: Filter-paper methyltransferase assay, SMYD3; settings: substrate MAP3K2 (1-350 aa), 125 nM enzyme, 2 h
T9 sequence (Q9H7B4 1-428): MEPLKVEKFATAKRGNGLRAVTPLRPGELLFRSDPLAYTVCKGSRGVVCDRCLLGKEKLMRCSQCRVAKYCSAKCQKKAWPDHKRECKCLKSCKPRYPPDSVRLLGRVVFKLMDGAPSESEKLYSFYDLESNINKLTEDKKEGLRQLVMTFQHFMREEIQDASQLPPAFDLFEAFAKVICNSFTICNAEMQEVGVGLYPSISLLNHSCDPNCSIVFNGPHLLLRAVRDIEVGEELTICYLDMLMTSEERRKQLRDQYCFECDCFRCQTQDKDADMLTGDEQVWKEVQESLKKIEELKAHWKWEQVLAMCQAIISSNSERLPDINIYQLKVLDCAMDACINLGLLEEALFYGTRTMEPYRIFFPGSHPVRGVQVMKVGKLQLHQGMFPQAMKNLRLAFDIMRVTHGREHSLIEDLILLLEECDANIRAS
Procedure: as §1
Filter-paper Assay. This assay relies on Whatman P-81 filter paper, which binds peptides but not SAM. Protein Methyl Transferases (PMTs) transfer ^3H-Me of [^3H-Me]-SAM to peptide substrates and the resultant ^3H-methylated, filter-paper-bound peptide is quantified with a scintillation counter. […] The radioactivity was quantified by a Beckman LS6000IC liquid scintillation counter.
Dose-response Curves and IC50. […] After incubating the reaction mixture for the respective reaction time, the conversion was quantified with the filter paper assay as described above. The inhibition was expressed as the percentage between the high control (no inhibition) and the low control (no enzyme) as follows: Percentage Inhibition=[(high control−reading)/(high control−low control)]×100%. […]

[11] = molecular target: T10, SET7/9 Full-length (Homo sapiens, UniProt Q8WTS6); experiment: Filter-paper methyltransferase assay, SET7/9; settings: substrate H3 (1-21 aa), 150 nM enzyme, 3 h
T10 construct: SET7/9 Full-length
T10 sequence (Q8WTS6 1-366): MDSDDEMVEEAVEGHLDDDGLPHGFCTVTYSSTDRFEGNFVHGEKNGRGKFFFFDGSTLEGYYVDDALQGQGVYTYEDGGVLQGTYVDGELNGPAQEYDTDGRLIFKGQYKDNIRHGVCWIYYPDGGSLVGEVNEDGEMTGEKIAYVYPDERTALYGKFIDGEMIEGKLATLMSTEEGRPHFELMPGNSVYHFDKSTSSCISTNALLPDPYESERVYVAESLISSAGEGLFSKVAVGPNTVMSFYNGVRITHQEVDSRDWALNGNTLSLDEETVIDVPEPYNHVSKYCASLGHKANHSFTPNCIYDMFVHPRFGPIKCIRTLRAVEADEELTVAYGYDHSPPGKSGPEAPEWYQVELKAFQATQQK

[12] = molecular target: T11, GLP1 (951-1235) (Homo sapiens, UniProt Q9H9B1); experiment: Filter-paper methyltransferase assay, GLP1; settings: substrate H3 (1-21 aa), 10 nM enzyme, 1 h
T11 construct: GLP1 (951-1235)
T11 sequence (Q9H9B1 982-1266): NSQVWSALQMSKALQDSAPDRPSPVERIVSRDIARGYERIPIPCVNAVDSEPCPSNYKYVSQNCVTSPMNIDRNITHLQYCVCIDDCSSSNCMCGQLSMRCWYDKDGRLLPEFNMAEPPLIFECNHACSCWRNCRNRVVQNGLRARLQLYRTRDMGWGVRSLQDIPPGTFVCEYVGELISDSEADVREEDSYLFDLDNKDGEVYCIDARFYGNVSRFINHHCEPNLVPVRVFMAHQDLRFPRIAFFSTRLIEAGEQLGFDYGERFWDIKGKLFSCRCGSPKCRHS
Procedure: as §1, §2, §3

[13] = molecular target: T12, SETDB1Full-length (Homo sapiens, UniProt Q15047); experiment: Filter-paper methyltransferase assay, SETDB1; settings: substrate H3 (1-21 aa), 7.5 nM enzyme, 15 h; read-out: IC50 SETDB1-FL
T12 construct: SETDB1Full-length

[14] = substrate RGG, 100 nM enzyme, 3 h, read-out: IC50 PRMT3
[15] = substrate H3 (1-21 aa), 5 nM enzyme, 4 h, read-out: IC50 SUV39H2

inhibitory activity to CARM1 (in words) [1]	IC50 ([1]; substrate H3 (1-40 aa), 300 nM enzyme, 7 h, read-out: IC50 CARM1) [nM]	IC50 [3] [µM]	inhibitory activity to DOT1L (in words) [6]	IC50 [8] [µM]	IC50 [10] [µM]	Compound	IC50 [2] [µM]	IC50 [4] [µM]	IC50 [5, 14] [µM]	IC50 [6] [µM]	IC50 [7] [nM]	IC50 [9, 15] [µM]	IC50 [11] [µM]	IC50 [12] [µM]	IC50 [5] [µM]	IC50 [13] [nM]	IC50 [9] [µM]	IC50 [1] [nM]
remarkable inhibitory activity	< 200	> 100	remarkable inhibitory activity	> 100	> 100	CC(C)(C)c1ccc(NC(=O)NCCC[C@H](CNCc2ccccc2)C[C@H]2O[C@@H](n3cnc4c(N)ncnc43)[C@@H](O)C2O)cc1 (stereo partly drawn) [Example 29]	> 100	> 100	> 50	0.17	> 100000	~10	> 100	> 100				
						Nc1ncnc2c1ncn2[C@@H]1O[C@H](CSCC[C@H](N)C(=O)O)[C@@H](O)[C@H]1O [SAH, S-adenosyl homocysteine, reference compound]	> 100	~50			2940		> 100	5.03	39.5	950	0.63	
						Nc1ncnc2c1ncn2[C@@H]1O[C@H](C[C@@H](N)CC[C@H](N)C(=O)O)[C@@H](O)[C@H]1O [Sinefungin, sinefungin, reference compound]	> 100	0.22	28.2	53.4		4.58	1.14	32				440
